Data reported in patent US8697709B2, “Fused ring heteroaryl kinase inhibitors” (The Regents of the University of California, priority 2008, dated 2014).
Substitutions are numbered along the chain they refer to. Where two headings read alike, the source gives them in different places.

What was measured:
[1] = molecular target: T1, Abl (Homo sapiens, UniProt P00519); assay: In vitro kinase assay (32P peptide phosphorylation), WT Abl; format: biochemical
T1 sequence (P00519 242-493 limits assumed): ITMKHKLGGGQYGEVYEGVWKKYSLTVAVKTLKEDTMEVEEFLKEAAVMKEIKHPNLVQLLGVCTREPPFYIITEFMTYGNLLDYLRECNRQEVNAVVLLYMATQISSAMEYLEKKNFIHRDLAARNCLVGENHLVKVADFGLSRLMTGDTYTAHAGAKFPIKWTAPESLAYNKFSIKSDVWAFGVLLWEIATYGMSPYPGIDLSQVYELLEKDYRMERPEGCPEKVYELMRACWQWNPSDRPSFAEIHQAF

[2] = molecular target: c-Src (Gallus gallus, UniProt P00523); assay: In vitro kinase assay (32P peptide phosphorylation), WT Src; format: biochemical
[3] = molecular target: T2, T315I Abl (Homo sapiens, UniProt P00519, T315I); assay: In vitro kinase assay, T315I Abl; format: biochemical; details: Table 1b
T2 sequence (P00519 242-493 T315I limits assumed): T1 sequence (P00519 242-493 limits assumed) with T74I
Procedure: (§1) Kinase reactions were initiated by the addition of […] cold ATP supplemented with 5 mCi γ^32P ATP and allowed to proceed at room temperature (RT). At 10 minutes […] of the reactions were spotted onto phosphocellulose sheets (P81, Whatman) and subsequently soaked in wash buffer (1.0% (v/v) phosphoric acid). The sheets were washed five times in buffer, dried, and transferred radioactivity was measured by phosphorimaging using a TyphoonTM scanner (Molecular Dynamics). Radioactive counts were quantified using ImageQuantTM software, and titration data were fit to a sigmoidal dose response to derive IC50 values using the Prism® software package. Dose responses were based on a 12 point inhibitor titration, using 1⁄3 dilutions starting from […]. Experiments were completed 2-4 times to derive mean values.

[4] = molecular target: T3, T315A Abl (Homo sapiens, UniProt P00519, T315A); assay: In vitro kinase assay, T315A Abl; format: biochemical; details: Table 1b
T3 sequence (P00519 242-493 T315A limits assumed): T1 sequence (P00519 242-493 limits assumed) with T74A
Procedure: as §1

[5] = molecular target: T338G Src (Gallus gallus, UniProt P00523, T338G); assay: In vitro kinase assay, T338G Src; format: biochemical; details: Table 1b
Procedure: as §1

[6] = tested on: parental BaF3 cells; assay: Cell proliferation (Resazurin) of parental BaF3 cells; format: cell-based; details: grown with recombinant IL-3; especially at 1 mM inhibitor
From the text: The ability of AD57 to inhibit Bcr-Abl and T315I Bcr-Abl was examined in a cell based assay. The Bcr-Abl oncogene was transduced into BaF3 cells, rendering them IL-3-independent. “IL-3” refers to interleukin 3 which in human maps to gene locus 5q31.1, as known in the art. Recombinant IL-3 is available commercially. BaF3 is a hematopoietic cell line that is normally dependent on IL-3 for growth and proliferation. However, through expression of activated Bcr-Abl, the cells become transformed to an IL-3 independent state. In this assay, cell proliferation is directly correlated to the activity of Bcr-Abl. Wild-type Bcr-Abl, T315I Bcr-Abl, and parental BaF3 cells were treated with AD57 (Cmpd 5) at the indicated concentrations for two days. The parental BaF3 cells, but not the Bcr-Abl transduced cells, were grown in the presence of recombinant IL-3 during the time course of this experiment. After the two day treatment, cell proliferation was quantified using the dye Resazurin, which is converted into a fluorescently detectable form only when metabolized by living cells.
It is possible to inhibit the growth of BaF3 cells transduced with Bcr-Abl through non-specific inhibition mediated toxicity. Therefore, the effects of the inhibitors on the growth of parental BaF3 cells have also been measured.

[7] = tested on: Bcr-Abl transduced BaF3 cells; assay: Cell proliferation (Resazurin) of Bcr-Abl transduced BaF3 cells; format: cell-based; details: two day treatment, without IL-3
[8] = Table 1b, read-out: IC50 WT Abl
[9] = Table 1b, read-out: IC50 WT Src

| IC50 [1, 8] | IC50 [2, 9] | IC50 [3] | IC50 [4] | IC50 [5] | Compound | IC50 ([1]; unphosphorylated kinase domain, 100 mM ATP, read-out: IC50 for Abl) | IC50 ([2]; unphosphorylated kinase domain, 100 mM ATP, read-out: IC50 for c-Src) | inhibition of growth of parental BaF3 cells [6] | inhibition of growth of Bcr-Abl BaF3 cells [7] |
| --- | --- | --- | --- | --- | --- | --- | --- | --- | --- |
| < 1000 nM | < 1000 nM | < 1000 nM | – | – | CC(C)n1nc(-c2ccc(NC(=O)Nc3ccccc3)cc2)c2c(N)ncnc21 [AD58] | – | – | – | – |
| > 5000 nM | > 5000 nM | < 1000 nM | > 5000 nM | 1000 to 5000 nM | CC(C)n1nc(-c2ccc(NC(=O)Nc3cccc(C(F)(F)F)c3)cc2)c2c(NC(=O)c3ccc(C(C)(C)C)cc3)ncnc21 [AD63] | – | – | – | – |
| < 1000 nM | – | < 1000 nM | – | – | Nc1ncnc2c1c(-c1ccc(NC(=O)Nc3cccc(C(F)(F)F)c3)cc1)nn2C1CCCC1 [AD60, 1-(4-(4-amino-1-cyclopentyl-1H-pyrazolo[3,4-d]pyrimidin-3-yl)phenyl)-3-(3-(trifluoromethyl)phenyl)urea] | – | – | – | – |
| < 1000 nM | < 1000 nM | < 1000 nM | < 1000 nM | < 1000 nM | CC(C)n1nc(-c2ccc(NC(=O)Nc3cccc(C(F)(F)F)c3)cc2)c2c(NC(=O)C3CC3)ncnc21 [AD61] | – | – | – | – |
| < 1000 nM | < 1000 nM | < 1000 nM | < 1000 nM | < 1000 nM | CC(C)n1nc(-c2ccc(NC(=O)Nc3cccc(C(F)(F)F)c3)cc2)c2c(NC(=O)C3CCCC3)ncnc21 [AD62] | – | – | – | – |
| < 1000 nM | – | < 1000 nM | – | – | Cn1nc(-c2ccc(NC(=O)Nc3cccc(C(F)(F)F)c3)cc2)c2c(N)ncnc21 [AD59, 1-(4-(4-amino-1-methyl-1H-pyrazolo[3,4-d]pyrimidin-3-yl)phenyl)-3-(3-(trifluoromethyl)phenyl)urea] | – | – | – | – |

| Compound | IC50 [1, 8] | IC50 [2, 9] | IC50 [3] | IC50 [4] | IC50 [5] | IC50 ([1]; unphosphorylated kinase domain, 100 mM ATP, read-out: IC50 for Abl) | IC50 ([2]; unphosphorylated kinase domain, 100 mM ATP, read-out: IC50 for c-Src) | inhibition of growth of parental BaF3 cells [6] | inhibition of growth of Bcr-Abl BaF3 cells [7] |
| --- | --- | --- | --- | --- | --- | --- | --- | --- | --- |
| CC(C)n1nc(-c2ccc(NC(=O)Nc3cccc(C(F)(F)F)c3)cc2)c2c(N)ncnc21 [AD57, 1-(4-(4-amino-1-isopropyl-1H-pyrazolo[3,4-d]pyrimidin-3-yl)phenyl)-3-(3-(trifluoromethyl)phenyl)urea] | < 1000 nM | < 1000 nM | < 1000 nM | – | < 1000 nM | 41 nM | 25 nM | but not parental BaF3 cells | equally inhibits the growth |
